US20080114007A1 (priority 2006, published 2008)

Molecular target: CSF-1R (Homo sapiens, UniProt P07333)
Assay: Peptide (non-phosphorylated) assay, fluorescence polarization competition immunoassay
Type: biochemical
Conditions: 0.7 nM CSF-1R, 308 μM SYEGNSYTFIDPTQ peptide, 1 mM ATP, 80 min; mean of at least three determinations; read-out: c-fms Peptide IC50
In short: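 Read-out is fluorescence polarization: after EDTA quench, anti-phosphotyrosine antibody plus PTK green tracer compete with the phosphorylated peptide for 30 min. The CSF-1R reaction itself ran 80 min at room temperature after ATP addition. DMSO (4%) wells served as controls, positive controls pre-treated with EDTA.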

Chain of CSF-1R (P07333 20-972): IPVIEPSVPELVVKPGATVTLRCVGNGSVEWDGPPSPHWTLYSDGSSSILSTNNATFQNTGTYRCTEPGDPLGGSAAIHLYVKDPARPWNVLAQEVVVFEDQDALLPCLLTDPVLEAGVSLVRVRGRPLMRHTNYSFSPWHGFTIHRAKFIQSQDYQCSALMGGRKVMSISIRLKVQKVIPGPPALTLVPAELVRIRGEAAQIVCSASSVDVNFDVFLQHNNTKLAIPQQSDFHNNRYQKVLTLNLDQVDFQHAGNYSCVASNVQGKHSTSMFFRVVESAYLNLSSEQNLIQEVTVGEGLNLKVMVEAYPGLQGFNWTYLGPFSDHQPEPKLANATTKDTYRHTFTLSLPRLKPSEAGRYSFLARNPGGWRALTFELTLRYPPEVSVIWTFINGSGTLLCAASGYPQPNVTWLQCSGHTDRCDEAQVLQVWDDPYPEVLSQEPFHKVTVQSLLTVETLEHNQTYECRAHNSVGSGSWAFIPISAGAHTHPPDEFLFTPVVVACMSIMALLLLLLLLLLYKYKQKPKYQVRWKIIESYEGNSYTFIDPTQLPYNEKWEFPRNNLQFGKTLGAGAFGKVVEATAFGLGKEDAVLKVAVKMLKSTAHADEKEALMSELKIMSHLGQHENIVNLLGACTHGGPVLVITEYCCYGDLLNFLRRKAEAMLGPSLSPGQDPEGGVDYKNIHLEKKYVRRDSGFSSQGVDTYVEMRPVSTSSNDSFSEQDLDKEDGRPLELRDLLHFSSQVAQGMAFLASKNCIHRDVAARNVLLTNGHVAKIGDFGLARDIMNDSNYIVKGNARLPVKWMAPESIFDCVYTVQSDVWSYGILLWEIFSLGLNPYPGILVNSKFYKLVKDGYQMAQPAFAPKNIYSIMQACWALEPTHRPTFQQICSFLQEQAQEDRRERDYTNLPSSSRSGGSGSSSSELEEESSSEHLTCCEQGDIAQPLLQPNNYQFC

SMILES	IC50
CONC(=O)c1cn(-c2ccc3c(c2)CCC3)c2nc(Nc3ccc([C@]4(O)CCN(C)C[C@H]4O)cc3)ncc2c1=O [Cpd 250, 2-{4-[(3R,4R)-(3,4-dihydroxy-1-methyl-piperidin-4-yl)]-phenylamino}-8-indan-5-yl-5-oxo-5,8-dihydro-pyrido[2,3-d]pyrimidine-6-carboxylic acid methoxy-amide]	0.39 nM
CCN1CCCC(Oc2cccc(Nc3ncc4c(=O)c(C(=O)NOC)cn(-c5ccc6c(c5)CCC6)c4n3)c2)C1 (stereo not shown) [Cpd 251, 2-[3-(1-ethyl-piperidin-3-yloxy)-phenylamino]-8-indan-5-yl-5-oxo-5,8-dihydro-pyrido[2,3-d]pyrimidine-6-carboxylic acid methoxy-amide]	0.93 nM
CONC(=O)c1cn(-c2ccc3c(c2)CCC3)c2nc(Nc3ccc(CCN4CC[C@@H](F)C4)cc3)ncc2c1=O [Cpd 252, 2-(4-{2-[(3R)-(3-fluoro-pyrrolidin-1-yl)]-ethyl}-phenylamino)-8-indan-5-yl-5-oxo-5,8-dihydro-pyrido[2,3-d]pyrimidine-6-carboxylic acid methoxy-amide]	0.57 nM
CONC(=O)c1cn(-c2ccc3c(c2)CCC3)c2nc(Nc3ccc(CCN4CC[C@H](F)C4)cc3)ncc2c1=O [Cpd 253, 2-(4-{2-[(3S)-(3-fluoro-pyrrolidin-1-yl)]-ethyl}-phenylamino)-8-indan-5-yl-5-oxo-5,8-dihydro-pyrido[2,3-d]pyrimidine-6-carboxylic acid methoxy-amide]	0.66 nM
CONC(=O)c1cn(-c2ccc3c(c2)CCC3)c2nc(Nc3ccc(CCN4CC(O)C4)cc3)ncc2c1=O [Cpd 254, 2-{4-[2-(3-hydroxy-azetidin-1-yl)-ethyl]-phenylamino}-8-indan-5-yl-5-oxo-5,8-dihydro-pyrido[2,3-d]pyrimidine-6-carboxylic acid methoxy-amide]	0.52 nM
CONC(=O)c1cn(-c2ccc3c(c2)CCC3)c2nc(Nc3ccc(CCN4CC[C@H](O)C4)cc3)ncc2c1=O [Cpd 255, 2-(4-{2-[(3S)-(3-hydroxy-pyrrolidin-1-yl)]-ethyl}-phenylamino)-8-indan-5-yl-5-oxo-5,8-dihydro-pyrido[2,3-d]pyrimidine-6-carboxylic acid methoxy-amide]	0.67 nM
CONC(=O)c1cn(-c2ccc3c(c2)CCC3)c2nc(Nc3ccc(CCN4CCCC(F)C4)cc3)ncc2c1=O (stereo not shown) [Cpd 256, 2-{4-[2-(3-fluoro-piperidin-1-yl)-ethyl]-phenylamino}-8-indan-5-yl-5-oxo-5,8-dihydro-pyrido[2,3-d]pyrimidine-6-carboxylic acid methoxy-amide]	0.88 nM
CCc1ccc(-n2cc(C(=O)NOC)c(=O)c3cnc(Nc4ccc(OCCOC)cc4)nc32)cc1 [Cpd 257, 8-(4-ethyl-phenyl)-2-[4-(2-methoxy-ethoxy)-phenylamino]-5-oxo-5,8-dihydro-pyrido[2,3-d]pyrimidine-6-carboxylic acid methoxy-amide]	1.2 nM
COCCOc1ccc(Nc2ncc3c(=O)c(C(=O)NOC)cn(-c4ccc5c(c4)CCC5)c3n2)cc1 [Cpd 258, 8-indan-5-yl-2-[4-(2-methoxy-ethoxy)-phenylamino]-5-oxo-5,8-dihydro-pyrido[2,3-d]pyrimidine-6-carboxylic acid methoxy-amide]	0.94 nM
CONC(=O)c1cn(-c2ccc3c(c2)C=CC3)c2nc(Nc3ccc(C4CCN(C)CC4)cc3)ncc2c1=O [Cpd 259, 8-(1H-inden-5-yl)-2-[4-(1-methyl-piperidin-4-yl)-phenylamino]-5-oxo-5,8-dihydro-pyrido[2,3-d]pyrimidine-6-carboxylic acid methoxy-amide]	0.7 nM
CCc1ccc(-n2cc(C(=O)NOC)c(=O)c3cnc(Nc4ccc(CCN5CCC5)cc4)nc32)cc1 [Cpd 260, 2-[4-(2-azetidin-1-yl-ethyl)-phenylamino]-8-(4-ethyl-phenyl)-5-oxo-5,8-dihydro-pyrido[2,3-d]pyrimidine-6-carboxylic acid methoxy-amide]	0.61 nM
COCCOc1cccc(Nc2ncc3c(=O)c(C(=O)NOC)cn(-c4ccc5c(c4)CCC5)c3n2)c1 [Cpd 261, 8-indan-5-yl-2-[3-(2-methoxy-ethoxy)-phenylamino]-5-oxo-5,8-dihydro-pyrido[2,3-d]pyrimidine-6-carboxylic acid methoxy-amide]	0.95 nM
CONC(=O)c1cn(-c2ccc3c(c2)CCC3)c2nc(Nc3ccc(CCN4CCC4)cc3)ncc2c1=O [Cpd 262, 2-[4-(2-azetidin-1-yl-ethyl)-phenylamino]-8-indan-5-yl-5-oxo-5,8-dihydro-pyrido[2,3-d]pyrimidine-6-carboxylic acid methoxy-amide]	0.59 nM
CCN1CC[C@H](Oc2cccc(Nc3ncc4c(=O)c(C(=O)NOC)cn(-c5ccc6c(c5)CCC6)c4n3)c2)C1 [Cpd 263, 2-{3-[(3S)-(1-ethyl-pyrrolidin-3-yloxy)]-phenylamino}-8-indan-5-yl-5-oxo-5,8-dihydro-pyrido[2,3-d]pyrimidine-6-carboxylic acid methoxy-amide]	0.56 nM
CONC(=O)c1cn(-c2ccc3c(c2)CCC3)c2nc(Nc3ccc(OC4CN5CCC4CC5)cc3)ncc2c1=O (stereo not shown) [Cpd 264, 2-[4-(1-aza-bicyclo[2.2.2]oct-3-yloxy)-phenylamino]-8-indan-5-yl-5-oxo-5,8-dihydro-pyrido[2,3-d]pyrimidine-6-carboxylic acid methoxy-amide]	0.38 nM
CCc1ccc(-n2cc(C(=O)NOC)c(=O)c3cnc(Nc4ccc(CCN5CC(F)C5)cc4)nc32)cc1 [Cpd 265, 8-(4-ethyl-phenyl)-2-{4-[2-(3-fluoro-azetidin-1-yl)-ethyl]-phenylamino}-5-oxo-5,8-dihydro-pyrido[2,3-d]pyrimidine-6-carboxylic acid methoxy-amide]	0.57 nM
CONC(=O)c1cn(-c2ccc3c(c2)CCC3)c2nc(Nc3ccc(CCN4CC(F)C4)cc3)ncc2c1=O [Cpd 266, 2-{4-[2-(3-fluoro-azetidin-1-yl)-ethyl]-phenylamino}-8-indan-5-yl-5-oxo-5,8-dihydro-pyrido[2,3-d]pyrimidine-6-carboxylic acid methoxy-amide]	0.62 nM
CONC(=O)c1cn(-c2ccc3c(c2)CCC3)c2nc(Nc3cccc(OC4CN5CCC4CC5)c3)ncc2c1=O (stereo not shown) [Cpd 267, 2-[3-(1-aza-bicyclo[2.2.2]oct-3-yloxy)-phenylamino]-8-indan-5-yl-5-oxo-5,8-dihydro-pyrido[2,3-d]pyrimidine-6-carboxylic acid methoxy-amide]	0.42 nM
CCc1ccc(-n2cc(C(=O)NOC)c(=O)c3cnc(Nc4ccc(OC5CN6CCC5CC6)cc4)nc32)cc1 (stereo not shown) [Cpd 268, 2-[4-(1-aza-bicyclo[2.2.2]oct-3-yloxy)-phenylamino]-8-(4-ethyl-phenyl)-5-oxo-5,8-dihydro-pyrido[2,3-d]pyrimidine-6-carboxylic acid methoxy-amide]	0.4 nM
CCc1ccc(-n2cc(C(=O)NOC)c(=O)c3cnc(Nc4ccc(CCN5CC(F)(F)C5)cc4)nc32)cc1 [Cpd 269, 2-{4-[2-(3,3-difluoro-azetidin-1-yl)-ethyl]-phenylamino}-8-(4-ethyl-phenyl)-5-oxo-5,8-dihydro-pyrido[2,3-d]pyrimidine-6-carboxylic acid methoxy-amide]	1.5 nM
CONC(=O)c1cn(-c2ccc3c(c2)CCC3)c2nc(Nc3ccc(CCN4CC(F)(F)C4)cc3)ncc2c1=O [Cpd 270, 2-{4-[2-(3,3-difluoro-azetidin-1-yl)-ethyl]-phenylamino}-8-indan-5-yl-5-oxo-5,8-dihydro-pyrido[2,3-d]pyrimidine-6-carboxylic acid methoxy-amide]	1.6 nM
CONC(=O)c1cn(-c2ccc3c(c2)CCC3)c2nc(Nc3cccc(C4CCCN(C)C4)c3)ncc2c1=O (stereo not shown) [Cpd 271, 8-indan-5-yl-2-[3-(1-methyl-piperidin-3-yl)-phenylamino]-5-oxo-5,8-dihydro-pyrido[2,3-d]pyrimidine-6-carboxylic acid methoxy-amide]	3.2 nM
CONC(=O)c1cn(-c2ccc3c(c2)CCC3)c2nc(Nc3cccc(C4(O)CCN(C)CC4)c3)ncc2c1=O [Cpd 272, 2-[3-(4-hydroxy-1-methyl-piperidin-4-yl)-phenylamino]-8-indan-5-yl-5-oxo-5,8-dihydro-pyrido[2,3-d]pyrimidine-6-carboxylic acid methoxy-amide]	0.88 nM
CONC(=O)c1cn(-c2ccc3c(c2)CCC3)c2nc(Nc3cccc(C4CCN(C)CC4)c3)ncc2c1=O [Cpd 273, 8-indan-5-yl-2-[3-(1-methyl-piperidin-4-yl)-phenylamino]-5-oxo-5,8-dihydro-pyrido[2,3-d]pyrimidine-6-carboxylic acid methoxy-amide]	1 nM
CONC(=O)c1cn(-c2ccc3c(c2)CCC3)c2nc(Nc3cccc(C4(O)CCNC4)c3)ncc2c1=O (stereo not shown) [Cpd 274, 2-[3-(3-hydroxy-pyrrolidin-3-yl)-phenylamino]-8-indan-5-yl-5-oxo-5,8-dihydro-pyrido[2,3-d]pyrimidine-6-carboxylic acid methoxy-amide]	0.44 nM
CONC(=O)c1cn(-c2ccc3c(c2)CCC3)c2nc(Nc3cccc(C4(O)CCCNC4)c3)ncc2c1=O (stereo not shown) [Cpd 275, 2-[3-(3-hydroxy-piperidin-3-yl)-phenylamino]-8-indan-5-yl-5-oxo-5,8-dihydro-pyrido[2,3-d]pyrimidine-6-carboxylic acid methoxy-amide]	0.66 nM
CONC(=O)c1cn(-c2ccc3c(c2)CCC3)c2nc(Nc3cccc(C4(O)CCN(CC(F)(F)F)CC4)c3)ncc2c1=O [Cpd 277, 2-{3-[4-hydroxy-1-(2,2,2-trifluoro-ethyl)-piperidin-4-yl]-phenylamino}-8-indan-5-yl-5-oxo-5,8-dihydro-pyrido[2,3-d]pyrimidine-6-carboxylic acid methoxy-amide]	2.7 nM
CCc1ccc(-n2cc(C(=O)NOC)c(=O)c3cnc(Nc4cccc(C5(O)CCCN(CC)C5)c4)nc32)cc1 (stereo not shown) [Cpd 278, 2-[3-(1-ethyl-3-hydroxy-piperidin-3-yl)-phenylamino]-8-(4-ethyl-phenyl)-5-oxo-5,8-dihydro-pyrido[2,3-d]pyrimidine-6-carboxylic acid methoxy-amide]	4.9 nM
